Data on 30 compounds can be found in ChEMBL document CHEMBL1157187, “Chemical synthesis of 2beta-amino-5alpha-androstane-3alpha,17beta-diol N-derivatives and their antiproliferative effect on HL-60 human leukemia cells” (Bioorg Med Chem, 2008).

Assay [1] has as its system HL-60. The assay is described as follows: Growth inhibition of human HL60 cells at 1 uM after 3 days. The format is functional. To be noted: HL-60, 72 h.
The test system of assay [2] is HL-60. The assay is described as follows: Growth inhibition of human HL60 cells at 10 uM after 3 days. The format is functional. To be noted: HL-60, 72 h.

One may read the inhibition as the relative decrease from the control value, in per cent. As for `C[C@]12C[C@H](n3cccn3)[C@@H](O)C[C@@H]1CC[C@@H]1[C@@H]2CC[C@]2(C)[C@@H](O)CC[C@@H]12`, in the assay on HL-60 [1], 1 µM produced 8.4% inhibition. In the assay with HL-60 [2], the inhibition at 10 µM was determined as 12.8%.
In the assay on HL-60 [1], `C[C@]12C[C@H](N3CCCC3)[C@@H](O)C[C@@H]1CC[C@@H]1[C@@H]2CC[C@]2(C)[C@@H](O)CC[C@@H]12` had an inhibition at 1 µM of 0%. For the same compound, in the assay with HL-60 [2], the inhibition at 10 µM amounted to 9.9%.
The compound `CCCCN[C@H]1C[C@@]2(C)[C@@H](CC[C@@H]3[C@@H]2CC[C@]2(C)[C@@H](O)CC[C@@H]32)C[C@@H]1O` came in with an inhibition at 1 µM in the assay on HL-60 [1] of 0%. In the assay on HL-60 [2], at 10 µM the inhibition was 3.1%.
For `CCCN1CCN([C@H]2C[C@@]3(C)[C@@H](CC[C@@H]4[C@@H]3CC[C@]3(C)[C@@H](O)CC[C@@H]43)C[C@@H]2O)CC1` the same measures were 0% and 0%.
On to `CC(=O)N1CCN([C@H]2C[C@@]3(C)[C@@H](CC[C@@H]4[C@@H]3CC[C@]3(C)[C@@H](O)CC[C@@H]43)C[C@@H]2O)CC1`, for which testing at 1 µM in the assay with HL-60 [1] gave an inhibition of 0%. Further, the inhibition at 10 µM in the assay on HL-60 [2] was 0%.
Consider `CCCCCCCCCN(CCCCCCCCC)[C@H]1C[C@@]2(C)[C@@H](CC[C@@H]3[C@@H]2CC[C@]2(C)[C@@H](O)CC[C@@H]32)C[C@@H]1O`, for which the inhibition at 1 µM in the assay on HL-60 [1] turned out to be 9.8%. Moreover, the inhibition at 10 µM with HL-60 [2] was 41.5%.
With `C[C@]12C[C@H](NCCCc3ccccc3)[C@@H](O)C[C@@H]1CC[C@@H]1[C@@H]2CC[C@]2(C)[C@@H](O)CC[C@@H]12`, 1 µM produced 0.9% inhibition with HL-60 [1]. Also, in the assay with HL-60 [2], 10 µM produced 37.6% inhibition.
For `C[C@]12C[C@H](N3CCNCC3)[C@@H](O)C[C@@H]1CC[C@@H]1[C@@H]2CC[C@]2(C)[C@@H](O)CC[C@@H]12`, the inhibition at 1 µM with HL-60 [1] is 6.9%. Also, the inhibition at 10 µM with HL-60 [2] came to 5.9%.
`C[C@]12C[C@H](NC3CCCC3)[C@@H](O)C[C@@H]1CC[C@@H]1[C@@H]2CC[C@]2(C)[C@@H](O)CC[C@@H]12` returned an inhibition at 1 µM in the assay on HL-60 [1] of 0%. This compound returned an inhibition at 10 µM in the assay with HL-60 [2] of 0%.
In the case of `CCC(C)(C)N[C@H]1C[C@@]2(C)[C@@H](CC[C@@H]3[C@@H]2CC[C@]2(C)[C@@H](O)CC[C@@H]32)C[C@@H]1O`, in the assay on HL-60 [1], the inhibition at 1 µM was found to be 0%. This compound also showed an inhibition at 10 µM in the assay on HL-60 [2] of 1.8%.
Turning to `CCCCCN1CCN([C@H]2C[C@@]3(C)[C@@H](CC[C@@H]4[C@@H]3CC[C@]3(C)[C@@H](O)CC[C@@H]43)C[C@@H]2O)CC1`, the inhibition at 1 µM with HL-60 [1] is 0%. In the assay with HL-60 [2], this compound came in with an inhibition at 10 µM of 7.7%.
For the compound `C[C@]12C[C@H](NCCc3ccccc3)[C@@H](O)C[C@@H]1CC[C@@H]1[C@@H]2CC[C@]2(C)[C@@H](O)CC[C@@H]12`, 1 µM produced 9.5% inhibition with HL-60 [1]. This compound showed an inhibition at 10 µM in the assay with HL-60 [2] of 42.8%.
Turning to `C[C@]12C[C@H](N3CCOCC3)[C@@H](O)C[C@@H]1CC[C@@H]1[C@@H]2CC[C@]2(C)[C@@H](O)CC[C@@H]12`, the inhibition at 1 µM with HL-60 [1] is 14.9%. In the assay on HL-60 [2], this compound returned an inhibition at 10 µM of 8.7%.
For `CCCCCCCCC(=O)N1CCN([C@H]2C[C@@]3(C)[C@@H](CC[C@@H]4[C@@H]3CC[C@]3(C)[C@@H](O)CC[C@@H]43)C[C@@H]2O)CC1` the same measures were 8.1% and 99%.
For `CCCCCCCN[C@H]1C[C@@]2(C)[C@@H](CC[C@@H]3[C@@H]2CC[C@]2(C)[C@@H](O)CC[C@@H]32)C[C@@H]1O` the same measures were 10.1% and 82.3%.
In turn, `CCCCOCCCN[C@H]1C[C@@]2(C)[C@@H](CC[C@@H]3[C@@H]2CC[C@]2(C)[C@@H](O)CC[C@@H]32)C[C@@H]1O` registered an inhibition at 1 µM in the assay with HL-60 [1] of 4.8%. In addition, in the assay with HL-60 [2], at 10 µM the inhibition was 26.5%.
Compound `CCCCCCCCCCCCN[C@H]1C[C@@]2(C)[C@@H](CC[C@@H]3[C@@H]2CC[C@]2(C)[C@@H](O)CC[C@@H]32)C[C@@H]1O` registered an inhibition at 1 µM with HL-60 [1] of 0%. Further, in the assay on HL-60 [2], testing at 10 µM gave an inhibition of 92%.
In turn, `CCCC(=O)N1CCN([C@H]2C[C@@]3(C)[C@@H](CC[C@@H]4[C@@H]3CC[C@]3(C)[C@@H](O)CC[C@@H]43)C[C@@H]2O)CC1` registered an inhibition at 1 µM in the assay with HL-60 [1] of 0%. Further, 10 µM produced 4.6% inhibition in the assay on HL-60 [2].
Turning to `C[C@]12C[C@H](N3CCN(CC4CCCCC4)CC3)[C@@H](O)C[C@@H]1CC[C@@H]1[C@@H]2CC[C@]2(C)[C@@H](O)CC[C@@H]12`, the inhibition at 1 µM in the assay on HL-60 [1] is 0%. In the assay with HL-60 [2], the inhibition at 10 µM was found to be 4%.
In the assay on HL-60 [1], `CCCN[C@H]1C[C@@]2(C)[C@@H](CC[C@@H]3[C@@H]2CC[C@]2(C)[C@@H](O)CC[C@@H]32)C[C@@H]1O` registered an inhibition at 1 µM of 0%. The inhibition at 10 µM with HL-60 [2] came out at 0.4%.
For `CCCCC(=O)N1CCN([C@H]2C[C@@]3(C)[C@@H](CC[C@@H]4[C@@H]3CC[C@]3(C)[C@@H](O)CC[C@@H]43)C[C@@H]2O)CC1` the same measures were 0% and 7.4%.
For `C[C@]12C[C@H](N3CCN(C(=O)C4CCCCC4)CC3)[C@@H](O)C[C@@H]1CC[C@@H]1[C@@H]2CC[C@]2(C)[C@@H](O)CC[C@@H]12` the same measures were 0% and 3.9%.
For the compound `CCCCCCCCCCCN(CCCCCCCCCCC)[C@H]1C[C@@]2(C)[C@@H](CC[C@@H]3[C@@H]2CC[C@]2(C)[C@@H](O)CC[C@@H]32)C[C@@H]1O`, 1 µM produced 11.7% inhibition in the assay with HL-60 [1]. In addition, in the assay with HL-60 [2], testing at 10 µM gave an inhibition of 7%.
The compound `C[C@]12C[C@H](N3CCN(c4ccccn4)CC3)[C@@H](O)C[C@@H]1CC[C@@H]1[C@@H]2CC[C@]2(C)[C@@H](O)CC[C@@H]12` returned an inhibition at 1 µM in the assay on HL-60 [1] of 0%. For the same compound, the inhibition at 10 µM in the assay with HL-60 [2] was 26.1%.
For `CCCCCCCCCCN[C@H]1C[C@@]2(C)[C@@H](CC[C@@H]3[C@@H]2CC[C@]2(C)[C@@H](O)CC[C@@H]32)C[C@@H]1O` the same measures were 0% and 96.9%.
With `C[C@]12C[C@H](N3CCN(c4ccc(F)cc4)CC3)[C@@H](O)C[C@@H]1CC[C@@H]1[C@@H]2CC[C@]2(C)[C@@H](O)CC[C@@H]12`, in the assay on HL-60 [1], the inhibition at 1 µM stood at 0%. The same compound registered an inhibition at 10 µM in the assay with HL-60 [2] of 10.1%.
As to `C[C@]12C[C@H](N3CCN(CCO)CC3)[C@@H](O)C[C@@H]1CC[C@@H]1[C@@H]2CC[C@]2(C)[C@@H](O)CC[C@@H]12`, the inhibition at 1 µM in the assay on HL-60 [1] came to 0.8%. The compound also returned an inhibition at 10 µM with HL-60 [2] of 17.7%.
`CC(C)CC(=O)N1CCN([C@H]2C[C@@]3(C)[C@@H](CC[C@@H]4[C@@H]3CC[C@]3(C)[C@@H](O)CC[C@@H]43)C[C@@H]2O)CC1` showed an inhibition at 1 µM with HL-60 [1] of 0%. At 10 µM the inhibition with HL-60 [2] was 5.5%.
`C[C@]12C[C@H](N3CCN(Cc4ccc5c(c4)OCO5)CC3)[C@@H](O)C[C@@H]1CC[C@@H]1[C@@H]2CC[C@]2(C)[C@@H](O)CC[C@@H]12`: testing at 1 µM with HL-60 [1] gave an inhibition of 0%. Moreover, at 10 µM the inhibition in the assay on HL-60 [2] was 26.1%.
`C[C@]12C[C@H](NC3CCCCC3)[C@@H](O)C[C@@H]1CC[C@@H]1[C@@H]2CC[C@]2(C)[C@@H](O)CC[C@@H]12`: in the assay on HL-60 [1], the inhibition at 1 µM was determined as 0%. The same compound had an inhibition at 10 µM in the assay on HL-60 [2] of 0%.
